Measurements as given in US6262084A, “Compounds that inhibit the binding of integrins to their receptors” (Texas Biotechnology Corporation, priority 1999, dated 2001).

Target: T1, α4β1 integrin (Homo sapiens, UniProt P05556+P13612)
T1 construct: Ramos cells fluorescently labeled with calcein; endogenous in cells; host or cells: Ramos cells
Test: Inhibition of adhesion of calcein-labeled Ramos cells to CS1 (fibronectin) peptide-conjugated ovalbumin
Type: cell-based
Conditions: Table 1; for inhibition at 100 µM: Ramos, compound at a concentration of 100 μM, read-out: % A (percent inhibition of cell adhesion); for IC50: dose required to give 50% inhibition, Ramos cell adhesion to CS1-ovalbumin, 30 minutes at 37° C
Protocol: The ability of compounds of the present invention to inhibit binding is described in detail hereinafter in the Examples by a procedure in which a 26-amino acid peptide containing the CS1 sequence of fibroncctin with an N-terminal Cys was coupled to maleimide activated ovalbumin. Ovalbumin and CS1 conjugated ovalbumin were coated onto 96-well polystyrene plates at 5 μg/ml in TBS (50 mM Tris, pH 7.5; 150 mM NaCl) at 4° C. for 16 hours. The plates were washed three times with TBS and blocked with TBS containing 3% BSA at room temperature for 4 hours. Blocked plates were washed three times in binding buffer (TBS; 1 mM MgCl2; 1 mM CaCl2; 1 mM MnCl2) prior to assay. Ramos cells fluorescently labeled with calcein AMC-3099 were resuspended in binding buffer (10^7 cells/ml) and diluted 1:2 with same buffer with or without compound. The cells were added immediately to the wells (2.5×10^5 cells/well) and incubated for 30 minutes at 37° C. Following three washes with binding buffer, adherent cells were lysed and quantitated using a fluorometer.
IC50 is defined as the dose required to give 50% inhibition. The lower the IC50 value and the greater the percentage of inhibition, the more efficient the compound is at prevention of cell adhesion. A stands for inhibition in Table 1, and the percent inhibition indicates the inhibition of cell adhesion when compound is included in the assay at a concentration of 100 μM.

T1 sequence (P13612 34-1032): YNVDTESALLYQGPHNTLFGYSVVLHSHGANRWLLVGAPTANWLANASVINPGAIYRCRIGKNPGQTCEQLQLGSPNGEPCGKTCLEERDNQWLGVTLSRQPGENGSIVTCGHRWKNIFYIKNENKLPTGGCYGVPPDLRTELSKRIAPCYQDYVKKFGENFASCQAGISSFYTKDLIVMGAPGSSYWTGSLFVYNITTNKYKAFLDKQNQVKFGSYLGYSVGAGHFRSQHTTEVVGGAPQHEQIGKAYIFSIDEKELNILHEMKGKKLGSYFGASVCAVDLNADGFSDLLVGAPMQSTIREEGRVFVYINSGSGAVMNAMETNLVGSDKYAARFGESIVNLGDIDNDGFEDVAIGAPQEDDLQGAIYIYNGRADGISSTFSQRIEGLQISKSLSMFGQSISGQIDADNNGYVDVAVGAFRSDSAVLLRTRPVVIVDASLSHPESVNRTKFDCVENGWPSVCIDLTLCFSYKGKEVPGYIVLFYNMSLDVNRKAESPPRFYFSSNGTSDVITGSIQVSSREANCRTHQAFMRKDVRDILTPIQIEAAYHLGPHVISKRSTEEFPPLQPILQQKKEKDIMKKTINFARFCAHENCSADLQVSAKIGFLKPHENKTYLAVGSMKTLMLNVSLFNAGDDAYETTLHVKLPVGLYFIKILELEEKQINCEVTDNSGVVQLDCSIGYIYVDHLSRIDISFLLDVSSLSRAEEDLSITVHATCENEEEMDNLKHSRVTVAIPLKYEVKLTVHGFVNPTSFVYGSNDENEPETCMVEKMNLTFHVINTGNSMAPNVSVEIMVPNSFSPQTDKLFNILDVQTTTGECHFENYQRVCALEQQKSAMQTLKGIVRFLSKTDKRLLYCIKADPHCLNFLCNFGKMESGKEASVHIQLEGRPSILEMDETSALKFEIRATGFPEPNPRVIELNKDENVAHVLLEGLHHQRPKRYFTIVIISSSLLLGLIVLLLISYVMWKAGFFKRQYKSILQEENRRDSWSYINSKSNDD
T1 sequence (P05556 21-798): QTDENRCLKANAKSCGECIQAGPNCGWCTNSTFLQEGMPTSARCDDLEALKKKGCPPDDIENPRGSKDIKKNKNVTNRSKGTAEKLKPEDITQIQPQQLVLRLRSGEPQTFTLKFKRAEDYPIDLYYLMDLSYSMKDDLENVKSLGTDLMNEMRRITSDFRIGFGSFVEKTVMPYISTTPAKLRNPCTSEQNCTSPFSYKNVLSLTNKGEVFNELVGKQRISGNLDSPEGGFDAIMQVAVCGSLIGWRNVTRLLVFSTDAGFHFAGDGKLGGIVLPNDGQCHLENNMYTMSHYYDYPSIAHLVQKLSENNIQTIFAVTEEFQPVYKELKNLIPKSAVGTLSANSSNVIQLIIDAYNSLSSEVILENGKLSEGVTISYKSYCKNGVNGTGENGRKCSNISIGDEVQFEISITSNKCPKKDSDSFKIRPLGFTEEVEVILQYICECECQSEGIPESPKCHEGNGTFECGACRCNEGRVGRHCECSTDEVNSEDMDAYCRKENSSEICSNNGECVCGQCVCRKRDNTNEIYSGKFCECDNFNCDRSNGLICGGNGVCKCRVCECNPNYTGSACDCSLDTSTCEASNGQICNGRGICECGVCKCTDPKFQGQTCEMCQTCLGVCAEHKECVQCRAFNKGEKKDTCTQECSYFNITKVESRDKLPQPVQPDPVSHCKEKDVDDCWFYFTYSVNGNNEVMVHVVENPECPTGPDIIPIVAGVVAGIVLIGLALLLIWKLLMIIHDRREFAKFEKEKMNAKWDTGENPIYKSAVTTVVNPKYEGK

Row | Structure (SMILES) | inhibition at 100 µM | IC50
1 | CSCC[C@@H](CSc1ccccc1C)NC(=O)N[C@@H](CC(=O)O)c1ccc2c(c1)OCO2 [(3S)-3-(1,3-benzodioxol-5-yl)-3-[({[(1S)-1-{[(2-methylphenyl)sulfanyl]methyl}-3-(methylsulfanyl)propyl]amino}carbonyl)amino]propanoic acid] | 100% | 300 nM
2 | CSCC[C@@H](CSc1cccc(C)c1)NC(=O)N[C@@H](CC(=O)O)c1ccc2c(c1)OCO2 [(3S)-3-(1,3-benzodioxol-5-yl)-3-[({[(1S)-1-{[(3-methylphenyl)sulfanyl]methyl}-3-(methylsulfanyl)propyl]amino}carbonyl)amino]propanoic acid] | 100% | 300 nM
3 | CSCC[C@@H](CSc1ccc(Cl)cc1)NC(=O)N[C@@H](CC(=O)O)c1ccc2c(c1)OCO2 [(3S)-3-(1,3-benzodioxol-5-yl)-3-[({[(1S)-1-{[(4-chlorophenyl)sulfanyl]methyl}-3-(methylsulfanyl)propyl]amino}carbonyl)amino]propanoic acid] | 100% | 3000 nM
4 | COc1ccc(SC[C@H](CCSC)NC(=O)N[C@@H](CC(=O)O)c2ccc3c(c2)OCO3)cc1 [(3S)-3-(1,3-benzodioxol-5-yl)-3-[({[(1S)-1-{[(4-methoxyphenyl)sulfanyl]methyl}-3-(methylsulfanyl)propyl]amino}carbonyl)amino]propanoic acid] | 100% | 7000 nM
5 | CSCC[C@@H](CSc1ccc(NS(=O)(=O)c2ccc(C)cc2)cc1)NC(=O)N[C@@H](CC(=O)O)c1ccc2c(c1)OCO2 [(3S)-3-(1,3-benzodioxol-5-yl)-3-[({[(1S)-1-{[(4-{[(4-methylphenyl)sulfonyl]amino}phenyl)sulfanyl]methyl}-3-(methylsulfanyl)propyl]amino}carbonyl)amino]propanoic acid] | 100% | 400 nM
6 | CSCC[C@@H](COc1ccccc1)NC(=O)N[C@@H](CC(=O)O)c1ccc2c(c1)OCO2 [(3S)-3-(1,3-benzodioxol-5-yl)-3-[({[(1S)-3-(methylsulfanyl)-1-(phenoxymethyl)propyl]amino}carbonyl)amino]propanoic acid] | 100% | 20000 nM
7 | CSCC[C@@H](CSc1ccccc1)N(C)C(=O)N[C@@H](CC(=O)O)c1ccc2c(c1)OCO2 [(3S)-3-(1,3-benzodioxol-5-yl)-3-{[(methyl{(1S)-3-(methylsulfanyl)-1-[(phenylsulfanyl)methyl]propyl}amino)carbonyl]amino}propanoic acid] | 78% | 35000 nM
8 | CCCCC(CSc1ccccc1)OC(=O)N[C@@H](CC(=O)O)c1ccc2c(c1)OCO2 (stereo partly drawn) [(3S)-3-(1,3-benzodioxol-5-yl)-3-{[({1-[(phenylsulfanyl)methyl]pentyl}oxy)carbonyl]amino}propanoic acid] | 100% | 6000 nM
9 | O=C(O)C[C@H](NC(=O)NC(CSc1ccccc1)CSc1ccccc1)c1ccc2c(c1)OCO2 [(3S)-3-(1,3-benzodioxol-5-yl)-3-{[({2-(phenylsulfanyl)-1-[(phenylsulfanyl)methyl]ethyl}amino)carbonyl]amino}propanoic acid] | 99% | 1500 nM
10 | O=C(O)C[C@H](NC(=O)N[C@H](COCc1ccccc1)CSCc1ccccc1)c1ccc2c(c1)OCO2 [(3S)-3-(1,3-benzodioxol-5-yl)-3-{[({(1R)-2-(benzyloxy)-1-[(benzylthio)methyl]ethyl}amino)carbonyl]amino}propanoic acid] | 100% | 1000 nM
11 | O=C(O)C[C@H](NC(=O)O[C@H](COCc1ccccc1)CSCc1ccccc1)c1ccc2c(c1)OCO2 [(3S)-3-(1,3-benzodioxol-5-yl)-3-{[({(1R)-2-(benzyloxy)-1-[(benzylthio)methyl]ethyl}oxy)carbonyl]amino}propanoic acid] | 100% | 10000 nM
12 | CCSC[C@@H](COCc1ccccc1)OC(=O)N[C@@H](CC(=O)O)c1ccc2c(c1)OCO2 [(3S)-3-(1,3-benzodioxol-5-yl)-3-{[({(1R)-2-(benzyloxy)-1-[(ethylthio)methyl]ethyl}oxy)carbonyl]amino}propanoic acid] | 100% | 12000 nM
13 | CCCC[C@@H](CSc1ccc(NC(=O)Nc2ccccc2C)cc1)OC(=O)N[C@@H](CC(=O)O)c1ccc2c(c1)OCO2 [(3S)-3-(1,3-benzodioxol-5-yl)-3-{[({(1S)-1-[({4-[(2-toluidinocarbonyl)amino]phenyl}thio)methyl]pentyl}oxy)carbonyl]amino}propanoic acid] | 100% | 300 nM
14 | O=C(O)C[C@H](NC(=O)N[C@@H](COCc1ccccc1)CSc1ccccc1)c1ccc2c(c1)OCO2 [(3S)-3-(1,3-benzodioxol-5-yl)-3-{[({(1S)-2-(benzyloxy)-1-[(phenylthio)methyl]ethyl}amino)carbonyl]amino}propanoic acid] | 100% | 300 nM
15 | O=C(O)C[C@H](NC(=O)N[C@@H](CSCc1ccccc1)CSc1ccccc1)c1ccc2c(c1)OCO2 [(3S)-3-(1,3-benzodioxol-5-yl)-3-{[({(1S)-2-(benzylsulfanyl)-1-[(phenylsulfanyl)methyl]ethyl}amino)carbonyl]amino}propanoic acid] | 100% | 20 nM
16 | O=C(O)C[C@H](NC(=O)O[C@@H](CSCc1ccccc1)CSc1ccccc1)c1ccc2c(c1)OCO2 [(3S)-3-(1,3-benzodioxol-5-yl)-3-{[({(1S)-2-(benzylthio)-1-[(phenylthio)methyl]ethyl}oxy)carbonyl]amino}propanoic acid] | 100% | 3000 nM
17 | CCSC[C@@H](CSc1ccccc1)OC(=O)N[C@@H](CC(=O)O)c1ccc2c(c1)OCO2 [(3S)-3-(1,3-benzodioxol-5-yl)-3-{[({(1S)-2-(ethylthio)-1-[(phenylthio)methyl]ethyl}oxy)carbonyl]amino}propanoic acid] | 100% | 1000 nM
18 | O=C(O)C[C@H](NC(=O)O[C@@H](COCCc1ccccc1)CSc1ccccc1)c1ccc2c(c1)OCO2 [(3S)-3-(1,3-benzodioxol-5-yl)-3-{[({(1S)-2-(phenethyloxy)-1-[(phenylthio)methyl]ethyl}oxy)carbonyl]amino}propanoic acid] | 100% | 4000 nM

The next lines start with the values.

Row | inhibition at 100 µM | IC50 | Structure (SMILES)
19 | 100% | 400 nM | CCCC[C@@H](CSc1ccccc1)NC(=O)N[C@@H](CC(=O)O)c1ccc2c(c1)OCO2 [(3S)-3-(1,3-benzodioxol-5-yl)-3-{[({(1S)-1-[(phenylsulfanyl)methyl]pentyl}amino)carbonyl]amino}propanoic acid]
20 | 100% | 50 nM | CCSC[C@@H](CSc1ccccc1)NC(=O)N[C@@H](CC(=O)O)c1ccc2c(c1)OCO2 [(3S)-3-(1,3-benzodioxol-5-yl)-3-{[({(1S)-2-(ethylsulfanyl)-1-[(phenylsulfanyl)methyl]ethyl}amino)carbonyl]amino}propanoic acid]
21 | 100% | 100 nM | CSC[C@@H](CSc1ccccc1)NC(=O)N[C@@H](CC(=O)O)c1ccc2c(c1)OCO2 [(3S)-3-(1,3-benzodioxol-5-yl)-3-{[({(1S)-2-(methylsulfanyl)-1-[(phenylsulfanyl)methyl]ethyl}amino)carbonyl]amino}propanoic acid]
22 | 98% | 5000 nM | CCCCCCCCSC[C@@H](CSc1ccccc1)NC(=O)N[C@@H](CC(=O)O)c1ccc2c(c1)OCO2 [(3S)-3-(1,3-benzodioxol-5-yl)-3-{[({(1S)-2-(octylsulfanyl)-1-[(phenylsulfanyl)methyl]ethyl}amino)carbonyl]amino}propanoic acid]
23 | 100% | 500 nM | CCCSC[C@@H](CSc1ccccc1)NC(=O)N[C@@H](CC(=O)O)c1ccc2c(c1)OCO2 [(3S)-3-(1,3-benzodioxol-5-yl)-3-{[({(1S)-2-(phenylsulfanyl)-1-[(propylsulfanyl)methyl]ethyl}amino)carbonyl]amino}propanoic acid]
24 | 100% | 2000 nM | O=C(O)C[C@H](NC(=O)N[C@@H](CSCCCc1ccccc1)CSc1ccccc1)c1ccc2c(c1)OCO2 [(3S)-3-(1,3-benzodioxol-5-yl)-3-{[({(1S)-2-[(3-phenylpropyl)sulfanyl]-1-[(phenylsulfanyl)methyl]ethyl}amino)carbonyl]amino}propanoic acid]
25 | 100% | 2000 nM | O=C(O)CSC[C@@H](CSc1ccccc1)NC(=O)N[C@@H](CC(=O)O)c1ccc2c(c1)OCO2 [(3S)-3-(1,3-benzodioxol-5-yl)-3-{[({(1S)-2-[(carboxymethyl)sulfanyl]-1-[(phenylsulfanyl)methyl]ethyl}amino)carbonyl]amino}propanoic acid]
26 | 100% | 200 nM | O=C(O)C[C@H](NC(=O)N[C@@H](CSCC1CC1)CSc1ccccc1)c1ccc2c(c1)OCO2 [(3S)-3-(1,3-benzodioxol-5-yl)-3-{[({(1S)-2-[(cyclopropylmethyl)thio]-1-[(phenylthio)methyl]ethyl}amino)carbonyl]amino}propanoic acid]
